Experimental data taken from patent US20260315563A1, “A NOVEL MENTHOL-EUCALYPTUS OIL ANTITUSSIVE SPRAY AND USE THEREOF” (SINO-SHINE BIOPHARMACEUTICAL CO.,LTD, priority 2023, published 2026).
Several values for one entry are separate records, joined by “and”; a condition that tells them apart may be missing. Equal values may be shown once. Entries after “also recorded” stand apart in the source; their conditions may differ. Where a name gives a salt, the structure may show the parent alone.

Experiments:
TRPV1 = details: in vivo; cited from earlier work
[1] = tested on: cough induction using LPS and citric acid; test: Animal Experiment 2: antitussive effect in LPS-citric acid cough model (inflammatory cough), guinea pigs; assay type: in vivo; details: for Cough Frequency / Cough Frequency Suppression Rate, Actual Value / Cough Latency: LPS + 0.2 M citric acid
Protocol: 160 guinea pigs, 250 g to 300 g each, half-male and half-female, certificate number 20220908Cdzz0412999409, were purchased from Xinjian Rabbit Farm, Dashiju Town, Xinchang County. The animals were reared at the general laboratory facility with 40% to 60% of humidity, and provided with a cycle of 12 h in the dark and 12 h in light. The animals could freely access to water and food. All operations and experimental procedures complied with the “Regulations on Animal Experiment Management.” • Production license: SCXK (Zhejiang) 2020-0005 • Application license: SCXK (Zhejiang) 2021-0019
Currently, there are barely reports on the models of inflammatory coughs in China and other countries. To closely mimic the occurrence of actual coughs in people suffering from acute respiratory infection, a novel inflammatory cough model was explored ahead of the projected experiments. This novel model was based on the citric acid-induced cough model, but the animals were subject to a LPS pretreatment before beginning with the cough provocation of citric acid.
After 5 days of adaptive feeding, the animal was individually placed in a glass bell jar to allow adaptation for 1 min, and then administrated with the compressed aerosol of 0.4 M citric acid solution (instead of physiological saline for the blank control group) for 10 min. The frequency of cough was recorded during administration of the citric acid aerosol. The guinea pigs with a cough frequency of 10-30 were retained for the formal experiments later. The qualified guinea pigs were randomly divided into the corresponding groups (not fewer than 8 in each group) and were subjected to test the inhalation of the nebulized solvent, menthol, eucalyptus oil, or a combination of menthol and eucalyptus oil for 10 min. After an interval of 15 min post inhalation of the test drug, the animals were administered with the aerosol of 1 mg/mL LPS. 4 hours post the LPS nebulization, the animals were subjected to the second inhalation of the nebulized solvent, menthol, eucalyptus oil, or the combination of menthol and eucalyptus oil for 10 min. Fifteen minutes later, the aerosol of 0.2 M citric acid was administered for cough induction, and the process was recorded by video during the inhalation of citric acid. The duration from the inhalation of the nebulized citric acid to the emergence of first cough was designated as the latency. The control group used solvent for nebulization and cough evoking.
• (1) 0.4 M citric acid: Citric acid was accurately weighed, added into an appropriate volume of pure water to make a final concentration of 0.4 mol/L, and completely dissolved by sonication. • (2) 0.2 M citric acid: Citric acid was accurately weighed, added into an appropriate volume of pure water to make a final concentration of 0.2 mol/L, and completely dissolved by sonication. • (3) Codeine: Codeine was accurately weighed, placed in a mortar and grounded repeatedly, added into an appropriate amount of physiological saline and completely dissolved by sonication. • (4) LPS preparation: LPS was accurately weighed, added into an appropriate amount of physiological saline to make a final concentration of 1 mg/mL, and completely dissolved by vortexing. • (5) Preparations of testing drugs: Initially, 4 g of menthol was dissolved in 10 mL of olive oil (menthol group), or 0.45 mL of eucalyptus oil was sufficiently mixed with 9.55 mL of olive oil (eucalyptus oil group). Afterwards, 5 g of soybean lecithin (previously cut into small pieces) was added to 10 mL of olive oil (control group) or each of the drug groups above, and dissolved by slowly stirring to form a uniform oil phase at 42° C. in a water bath. Further, double distilled water was slowly added to each group in oil phase on a magnetic stirrer and fully emulsified by sufficiently stirring to mix the oil phase with water. […]

[2] = tested on: sodium citrate-evoked coughs; test: Animal Experiment 1: antitussive effect in sodium citrate (citric acid)-evoked cough, guinea pigs; assay type: in vivo; details: for Cough Frequency / Cough Latency / Inhibition Rate of Cough: nebulization 10 min, 0.4 M citric acid; for Inhibition Rate of Cough: original model
Protocol: 100 guinea pigs, 250 g to 300 g each, half-male and half-female, were purchased from Beijing Vital River Experimental Animal Technology Co., Ltd., referred to Certificate Numbers 110011220104932418, 110011220104932542. The animals were reared at the general laboratory facility with 40% to 60% of humidity, and provided with a cycle of light: 12 h in dark and 12 h in light. The animals could freely access to water and food. All operations and experimental procedures complied with the “Regulations on Animal Experiment Management.”
At the initial screening step, each guinea pig was individually placed in a glass bell jar to allow adaptation for 1 min and then administered with a compressed aerosol of 0.4 M citric acid solution (instead of physiological saline for the blank control group) for 10 min. The frequency of cough was recorded during administration of the aerosol. The guinea pigs with a cough frequency of 10-30 were retained for the formal experiments later. The qualified guinea pigs were randomly divided into the corresponding groups (not fewer than 10 in each group) and were subjected to test the inhalation of the nebulized solvent, menthol, eucalyptus oil, or a combination of menthol and eucalyptus oil for 10 min. After an interval of 10 min post-inhalation of the test drug, 0.4 M citric acid solution was nebulized and given for inhalation, and the cough frequency was recorded by video from the beginning to the end of the administration of citric acid aerosol. The latency of cough is defined as the period from the inhalation of nebulized citric acid to the appearance of the first cough. The videos were recorded during the period of cough provocation in the experiment.
• (1) 0.4 M sodium citrate: Sodium citrate was accurately weighed, added into an appropriate volume of pure water, completely dissolved by sonication, and finally diluted to 0.4 M for use later. • (2) Codeine: Codeine was accurately weighed, grounded sufficiently in a mortar, transferred into an appropriate amount of physiological saline, and dissolved by sonication. • (3) Preparations of testing drugs: Initially, an oil phase was prepared by dissolving 2 g of menthol in 10 mL of olive oil (menthol group); or well mixing 3.6 mL of eucalyptus oil with 6.4 mL of olive oil (eucalyptus oil group); or adding 2 g of menthol and 3.6 mL of eucalyptus oil/0.6 g of menthol and 3.6 mL of eucalyptus oil/2 g of menthol and 1.2 mL of eucalyptus oil respectively in a corresponding volume of olive oil to make a final 10 mL solution (menthol+eucalyptus oil groups). Afterwards, 5 g of soybean lecithin (cut into small pieces beforehand) was added to 10 mL of olive oil (control group) or each of the drug groups above and dissolved by slowly stirring to form a uniform oil phase at 42° C. in a water bath. Further, double distilled water was slowly added to each group in oil phase on a magnetic stirrer and fully emulsified by sufficiently stirring to mix the oil phase with water. A final emulsion was prepared in a volume of 100 mL and could be further diluted to make a working preparation with the specific concentration of drug (or drugs).
All experimental data were expressed as mean±SEM, and the data-processing software SSPS16.0 was used to conduct the analysis of variance and inter-group t-test. The conclusions were made by comprehensively analyzing all data.

[3] = tested on: inflammatory factors, such as leukotriene B4 (LTB4), prostaglandin (PGE2), and a variety of cytokines; details: cited from earlier work
coughs = details: in vivo; cited from earlier work
asthma = details: clinical trials for asthma; cited from earlier work
TRPM8 = details: cooling effect; membrane potential depolarization and Ca2+ influx; cited from earlier work
[4] = tested on: capsaicin-guinea pig model; details: cited from earlier work
[5] = 2% menthol, 3.6% eucalyptus oil, combinations, or 30 mg/mL codeine phosphate, P<0.01

COc1cc(CNC(=O)CCCC/C=C/C(C)C)ccc1O [Capsaicin]
Cough induction by TRPV1 agonists (in words) (TRPV1): evoke coughs in humans and guinea pigs

O=C(O)CC(O)(CC(=O)O)C(=O)O [Citric acid]
Cough induction (in words) ([1]; 0.2 M citric acid after LPS, P<0.01 vs blank control): significantly induce coughs

COc1ccc2c3c1O[C@H]1[C@@H](O)C=C[C@H]4[C@@H](C2)N(C)CC[C@@]341 [Codeine phosphate]
Cough Frequency ([1]; 30 mg/mL codeine): 8.44 ± 0.71 | Cough Frequency Suppression Rate, Actual Value ([1]; 30 mg/mL codeine): 55.29 ± 3.86 % | Cough Latency ([1]; 30 mg/mL codeine): 134.78 ± 9.72 s | Cough Frequency ([2]; 30 mg/mL codeine phosphate): 7.90 ± 1.61 times | Cough Latency ([2]; 30 mg/mL codeine phosphate): 158.30 ± 17.46 s | Inhibition Rate of Cough ([2]; 30 mg/mL codeine phosphate): 57.30 ± 8.70 %

CC12CCC(CC1)C(C)(C)O2 [Eucalyptol, 1,8-Cineol]
Anti-inflammatory effect (in words) [3]: effective anti-inflammatory agent | Antitussive effect in human clinical trials (in words) (coughs): proven to have anti-inflammatory and antitussive effects in clinical trials; also recorded: confirmed in clinical trials | Replacement of glucocorticoids in asthma (in words) (asthma): partially replace the use of glucocorticoids

CC(C)[C@@H]1CC[C@@H](C)C[C@H]1O [Menthol, L-1-methyl-4-isopropylcyclohexan-3-ol]
Antitussive effect in human clinical trials (in words) (coughs): well verified in human clinical trials | Activation of TRPM8 (in words) (TRPM8): Activation of TRPM8 | Cough Frequency ([1]; 0.06% menthol): 16.50 ± 1.78 | Cough Frequency Suppression Rate, Actual Value ([1]; 0.06% menthol): 12.65 ± 9.44% | Cough Latency ([1]; 0.06% menthol): 104.88 ± 10.85 s | Cough Frequency ([1]; 0.25% menthol): 14.88 ± 1.90 | Cough Frequency Suppression Rate, Actual Value ([1]; 0.25% menthol): 21.25 ± 10.08% | Cough Latency ([1]; 0.25% menthol): 88.75 ± 15.96 s | Statistical significance of cough suppression (in words) ([1]; 1.0% and 4% menthol, 0.15% and 0.45% eucalyptus oil, P<0.01-0.05): statistical significance; also recorded: statistically attained the significance in cough suppression | Cough Frequency ([1]; 1.0% menthol): 13.13 ± 0.55 | Cough Frequency Suppression Rate, Actual Value ([1]; 1.0% menthol): 28.53 ± 3.00% | Cough Latency ([1]; 1.0% menthol): 116.38 ± 11.30 s | Cough Frequency Suppression Rate, Actual Value ([1]; 1.0% menthol, listed as menthol): 28.53 ± 3.00 % | Cough Frequency ([1]; 4.0% menthol): 11.38 ± 0.82 | Cough Frequency Suppression Rate, Actual Value ([1]; 4.0% menthol): 39.78 ± 4.35% | Cough Latency ([1]; 4.0% menthol): 128.13 ± 13.84 s | Cough Frequency Suppression Rate, Actual Value ([1]; 4.0% menthol, listed as menthol): 39.78% and 39.78 ± 4.35 % | Effect on frequency of coughs (in words) ([1]; menthol 0.06-4%, eucalyptus oil 0.05-0.45%, combinations 0.06-1.0% + 0.05-0.15%, codeine 30 mg/mL): reduce the frequency of coughs in a dose-dependent manner | Efficacy on inflammatory coughs compared with original model (in words) ([1]; novel LPS-citric acid model vs original citric acid model): reduced; also recorded: better activities on non-inflammatory coughs; also recorded: declined | Effect on frequency of coughs / antitussive effect (in words) [2, 5]: reduced the frequency of coughs; also recorded: reduced the cough frequency; also recorded: show antitussive effects | Effect on latency of coughs (in words) [2, 5]: significantly increased the cough latency | Cough Frequency ([2]; 2% menthol): 11.58 ± 1.72 times | Cough Latency ([2]; 2% menthol): 155.50 ± 20.43 s | Inhibition Rate of Cough ([2]; 2% menthol): 37.39 ± 9.30% | Inhibition Rate of Cough ([2]; 2% menthol, listed as menthol): 37.39% and 37.39 ± 9.30 % | Antitussive effect on capsaicin-evoked coughs (in words) [4]: effectively suppress coughs; also recorded: significantly suppressed

O=C(O)CC(O)(CC(=O)O)C(=O)O [Sodium citrate]
Cough induction by TRPV1 agonists (in words) (TRPV1): evoke coughs in humans and guinea pigs | Cough induction (in words) ([2]; 0.4 M sodium citrate, P<0.01 vs control): significantly evoke coughing in guinea pigs
